ChEMBL document CHEMBL5385955, “Minor Hydroxylated Triterpenoids Produced in Engineered Yeast by the Enzymes OSC and CYP716s from the Plant Enkianthus chinensis and Their Anti-Inflammatory and Hepatoprotective Activities” (2024)
The source made the active and inactive calls. The rule behind the calls is not given here.

Columns and labels:
HepG2 = assay: Hepatoprotective activity against acetaminophen-induced cell damage in human HepG2 cells assessed as increase in cell survival at 10 uM incubated for 24 hrs by CCK-8 assay relative to control; type: functional; settings: read-out: Survival
RAW264.7 [1] = assay: Antiinflammatory activity in LPS-induced mouse RAW264.7 cells assessed as inhibition of NO production at 10 to 40 uM incubated for 24 hrs by Griess reagent based assay; type: functional, cell-based; settings: dose 10-40 µM
RAW264.7 [2] = assay: Antiinflammatory activity in LPS-induced mouse RAW264.7 cells assessed as reduction in IL-1beta mRNA expression incubated for 24 hrs by qPCR analysis; type: functional, cell-based; settings: dose 10-40 µM
RAW264.7 [3] = assay: Antiinflammatory activity in LPS-induced mouse RAW264.7 cells assessed as reduction in IL-6 mRNA expression incubated for 24 hrs by qPCR analysis; type: functional, cell-based; settings: dose 10-40 µM
RAW264.7 [4] = assay: Antiinflammatory activity in LPS-induced mouse RAW264.7 cells assessed as reduction in IL-6 production at 10 to 40 uM incubated for 24 hrs by ELISA; type: functional, cell-based; settings: dose 10-40 µM
RAW264.7 [5] = assay: Antiinflammatory activity in LPS-induced mouse RAW264.7 cells assessed as reduction in IL-1beta production at 10 to 40 uM incubated for 24 hrs by ELISA; type: functional, cell-based; settings: dose 10-40 µM

| SMILES | viability at 10 µM (HepG2) | other results |
| --- | --- | --- |
| COC(=O)c1cc(OC)c2c(c1-c1c(CO)cc(OC)c3c1OCO3)OCO2 [BICYCLOL] | 60% | – |
| C[C@H]1[C@H](C)CC[C@]2(C)CC[C@]3(C)C(=CC[C@@H]4[C@@]5(C)CC[C@H](O)C(C)(C)[C@@H]5CC[C@]43C)[C@H]12 | 61% | – |
| C[C@H]1[C@H](C)CC[C@]2(CO)CC[C@]3(C)C(=CC[C@@H]4[C@@]5(C)CC[C@H](O)C(C)(C)[C@@H]5CC[C@]43C)[C@H]12 [UVAOL] | 61% | – |
| CC1(C)CC[C@]2(CO)CC[C@]3(C)C(=CC[C@@H]4[C@@]5(C)CC[C@H](O)C(C)(C)[C@@H]5CC[C@]43C)[C@@H]2C1 [ERYTHRODIOL] | 61% | Activity (RAW264.7 [1]): Active; Activity (RAW264.7 [2]): Dose-Dependent Effect; Activity (RAW264.7 [3]): Dose-Dependent Effect; Activity (RAW264.7 [4]): Active; Activity (RAW264.7 [5]): Active |
| CC1(C)CC[C@]2(C)CC[C@]3(C)C(=CC[C@@H]4[C@@]5(C)CC[C@H](O)C(C)(C)[C@@H]5CC[C@]43C)[C@@H]2C1 [beta-AMYRIN] | 61% | – |
